The source of these data is patent publication US6495588B2, “Scytonemin and methods of using thereof” (The Regents of the University of California, priority 2000, dated 2002).

For test [1], the system named is PMA-induced mouse ear skin hyperplasia. As to the kind of experiment: Tissue hyperplasia assay (PMA-induced mouse ear skin hyperplasia). It counts as in vivo.
Procedure: To determine the in vivo efficacy of syctonemin, PMA-induced mouse ear skin hyperplasia model was used. As one cause of tissue hyperplasia is chronic inflammation, mouse ear skin was exposed to multiple PMA applications to simulate chronic inflammation. Specifically, 0.125, 0.25, 0.5, or 1.0 mg of scytonemin in 20 μl of 20% DMSO and 80% acetone was applied to the inner pinnae of the left ears of male, Swiss Webster mice (Taconic Farms, Germantown, N.Y.) at 0, 5, 24, 29, 48, and 53 hours. The inner pinnae of the right ears received only 10 μl of vehicle and 10 μl of acetone at 0, 5, 24, 29, 48, and 53 hours. At 0.5 and 48.5 hours, 4 μg/ear PMA (Sigma, St. Louis, Mo.) in 10 μl acetone was applied to the inner pinnae the left ears and 10 μl acetone was applied to each right ear. One hour after the last scytonemin application (54 hours) each mouse was injected with 0.6 ml of a solution containing IUdR (2 μCi-I^125/mouse) and 26 μg FUdR. This IUdR/FUdR solution was made up in RPMI 1640 media. At 72 hours, the mice were euthanized via CO2 inhalation, the ears were excised and soaked individually in a 70% EtOH solution overnight.
At 96 hours, IUdR incorporation was then measured using a Beckman Gamma counter, Model 5500B. […] IUdR incorporated was calculated by the following equation: % IUdR incorporation=(Count of Ear−Background)/(Total Count−Background). The percent of control of IUdR incorporation was calculated by the following equation: % Control=(% IUdR Uptake in Sample Ear)/(% IUdR Uptake PMA−Treated Control Ear)×100.
Alternatively, the cyrosections of the mouse ears were stained and histologically analyzed. […]
At 72 hours, the mice were euthanized and the ears were immediately embedded in a suitable hypoxy resin such as OCT media and snap frozen using melting isopentane using conventional methods. […] The sections were fixed and stained with hematoxlin and then analyzed under a microscope with a 10× magnification.
A further test has as its target T1, PKA (Bos taurus, UniProt P00517).
T1 construct: 0.5 μg PKA (from bovine heart supplied by Sigma, St. Louis, Mo.); purchased Sigma, St. Louis, Mo; host or cells: bovine heart tissue
As to the kind of experiment: PKA activity assay. It counts as biochemical, bovine. How it is done:
RhPKCβ2 was expressed in a baculovirus expression system. Kinase reactions were conducted in 50 μl comprising 0.5 μg rhPKC diluted in 2 mM Tris, and 100 μM EGTA and reaction buffer comprising substrate (0.9 mM EGTA, 1.1 mM CaCl2, 0.01 mg/ml glycogen synthase peptide (H-[…]OH) (Bachem, King of Prussia, Pa.), 40 μg/ml L-α-Phosphatidyl-L-serine, 1 μg/ml 1,3-Diolen, 10 mM MgCl2, pH 7.5). To assess PKA activity, kinase reactions were conducted in 50 μl comprising 0.5 μg PKA (from bovine heart supplied by Sigma, St. Louis, Mo.) diluted in 10 mM MOPS, pH 6.5 and reaction buffer comprising substrate (50 mM MOPS, pH 6.5, 10 mM MgCl2, 0.1 mg/ml Histone-IIA (Sigma, St. Louis, Mo.), 1 μM cAMP). An ATP solution (0.01 μM ATP and 0.5 μCi of [γ^33-P] ATP) was then added to the wells in both assay systems. Inhibitors were added at the indicated concentrations with a final DMSO concentration of 10%. Reactions were allowed to proceed for 20 minutes at 37° C. and were stopped with 25 mM EDTA. The reactions were spotted onto filter paper, washed four times in a beaker comprising 75 mM phosphoric acid and rinsed with acetone. Filters were dried and put in scintillation vials with fluid and counted.

The next test deals with T2, GST-Myt1 (Homo sapiens, UniProt Q99640).
T2 construct: The Myt1 gene was truncated after amino acid 379 and just prior to the membrane-anchoring domain; made in house; host or cells: Sf9 (baculovirus, pFASTBAC)
T2 sequence (Q99640 1-379): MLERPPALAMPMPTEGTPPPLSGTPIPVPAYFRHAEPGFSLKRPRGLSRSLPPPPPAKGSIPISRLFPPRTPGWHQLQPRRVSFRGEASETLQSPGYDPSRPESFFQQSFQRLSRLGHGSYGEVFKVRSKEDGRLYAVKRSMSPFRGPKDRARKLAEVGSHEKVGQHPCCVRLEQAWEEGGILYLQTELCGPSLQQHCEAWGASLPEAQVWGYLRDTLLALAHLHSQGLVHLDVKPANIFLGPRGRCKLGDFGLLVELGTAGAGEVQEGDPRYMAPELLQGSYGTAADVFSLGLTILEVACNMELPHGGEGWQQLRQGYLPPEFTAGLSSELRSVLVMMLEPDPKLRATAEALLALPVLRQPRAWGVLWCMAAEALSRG
As to the kind of experiment: GST-Myt1 autophosphorylation DELFIA assay. Conditions: 1 μM ATP. The format is biochemical. An excerpt:
To determine the effect of SCY on GST-Myt1 activity, a rh-GST-Myt1 expression vector was constructed to include gst fused to the amino terminus of a truncated human Myt1 gene via a linker comprising a thrombin cleavage site. The Myt1 gene was truncated after amino acid 379 and just prior to the membrane-anchoring domain. The construct was cloned into the baculovirus expression system, pFASTBAC (Gibco-BRL, Gaithersburg, Md.).
Spodoptera frugiperda 9 (Sf9) cells were infected with the virus and grown for three days before purifying as described in Roshak et al. (2000) for GST-PLK1 and GST-cdc25C to 75% purity as determined by SDS-PAGE analysis and Coomassie Blue staining. Dissociative enhanced lanthanide fluorescence immunoassays (DELFIA) (Wallac OY, Turku, Finland) were performed in 50 μl/well with 0.25 μg GST-Myt1, in reaction buffer (50 mM HEPES, pH 7.4, 2 mM Mn(OAc)2, 1 μM ATP, 1 mM DTT (final reaction concentrations)), and SCY (1 nM to 10 μM final reaction concentration). […]
Reactions were allowed to proceed at room temperature with shaking for 20 minutes and were stopped with the addition of EDTA to give a final concentration of 20 mM, and the protein was allowed to bind to the wells for an additional 40 minutes. […] The plate was then read on the 1420 VICTOR plate counter from Wallac, Inc.

For orientation: IC50 means the midpoint of a concentration-inhibition curve. Read a low IC50 as inhibition by little substance.

Turning to scytonemin, in test [1] (PMA-treated mouse ears), the “thickness of the epidermal layer” value was “reduced the thickness of the epidermal layer”. Besides, the “tissue hyperplasia (histology, hematoxlin)” value in test [1] (scytonemin 1 mg/ear, dexamethasone 0.15 mg/ear, PMA 4 μg/ear) is on record as “to about normal”. Moreover, the “ED50 skin hyperplasia (IUdR incorporation)” value in test [1] (topical) was “about 0.270±0.11 mg/ear”. The IC50 was > 10000 nM at PKA and ~1000 nM on GST-Myt1. Also, at PKA (0.01 μM ATP), the “concentration at which PKA activity is significantly affected or inhibited” value is ≥ 10 µM.
